The target of assay [1] is T1, C-C chemokine receptor type 4 (Homo sapiens, UniProt P51679). Further: in other assays of this panel Not Active means under 50% inhibition at 10 µM.
T1 sequence (P51679 whole entry): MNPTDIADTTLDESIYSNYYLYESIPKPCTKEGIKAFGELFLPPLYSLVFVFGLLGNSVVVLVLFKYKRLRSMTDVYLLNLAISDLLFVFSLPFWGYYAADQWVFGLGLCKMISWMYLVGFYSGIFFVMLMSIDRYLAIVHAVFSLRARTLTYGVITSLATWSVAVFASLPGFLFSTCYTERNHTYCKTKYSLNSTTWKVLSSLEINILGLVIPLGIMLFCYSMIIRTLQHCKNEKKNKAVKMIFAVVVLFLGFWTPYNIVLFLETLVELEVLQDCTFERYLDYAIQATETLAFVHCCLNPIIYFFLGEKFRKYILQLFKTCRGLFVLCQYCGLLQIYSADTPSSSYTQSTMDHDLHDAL
The assay is classed as cell membranes, Chem-1, Membrane. Particulars: chem-1.

Assay [2] addresses 5-hydroxytryptamine receptor 4 (Cavia porcellus, UniProt O70528). The assay is classed as cell membranes, Dunkin-Hartley, Striatum, Membrane.
Another assay has as its target Glycine receptor (Rattus norvegicus, UniProt P22771+P24524+P07727+P20781). The assay is classed as cell membranes, Wistar, Spinal cord, Membrane. Further: in other assays of this panel Not Active means under 50% inhibition at 10 µM.
Assay [3] deals with T2, Alpha-1B adrenergic receptor (Rattus norvegicus, UniProt P15823).
T2 sequence (P15823 whole entry): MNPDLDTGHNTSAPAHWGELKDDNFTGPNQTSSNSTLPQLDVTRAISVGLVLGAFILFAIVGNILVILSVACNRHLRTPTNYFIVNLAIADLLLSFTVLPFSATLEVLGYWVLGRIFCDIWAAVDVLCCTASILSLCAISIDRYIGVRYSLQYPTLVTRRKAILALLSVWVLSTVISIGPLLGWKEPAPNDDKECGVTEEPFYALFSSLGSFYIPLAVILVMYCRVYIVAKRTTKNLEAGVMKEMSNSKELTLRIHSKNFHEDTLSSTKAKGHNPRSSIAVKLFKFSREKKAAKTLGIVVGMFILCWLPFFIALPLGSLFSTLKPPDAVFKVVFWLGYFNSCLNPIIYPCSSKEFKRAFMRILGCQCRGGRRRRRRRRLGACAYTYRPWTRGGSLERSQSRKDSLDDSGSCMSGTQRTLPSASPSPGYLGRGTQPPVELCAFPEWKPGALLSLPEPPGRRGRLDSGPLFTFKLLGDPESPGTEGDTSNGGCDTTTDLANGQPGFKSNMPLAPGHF
The assay is described as follows: DRUGMATRIX: Alpha-1B adrenergic receptor radioligand binding (ligand: prazosin). Format: cell membranes, Wistar, Liver, Membrane. Particulars: Not Active = under 50% inhibition at 10 µM.

For another assay, the target named is Vasopressin V1a receptor (Homo sapiens, UniProt P37288). The assay is classed as cell membranes, Membrane. The conditions noted are these: hek293. Further: in other assays of this panel Not Active means under 50% inhibition at 10 µM.
The target in assay [4] is T3, C-X-C chemokine receptor type 1 (Homo sapiens, UniProt P25024). Further: in other assays of this panel Not Active means under 50% inhibition at 10 µM.
T3 sequence (P25024 whole entry): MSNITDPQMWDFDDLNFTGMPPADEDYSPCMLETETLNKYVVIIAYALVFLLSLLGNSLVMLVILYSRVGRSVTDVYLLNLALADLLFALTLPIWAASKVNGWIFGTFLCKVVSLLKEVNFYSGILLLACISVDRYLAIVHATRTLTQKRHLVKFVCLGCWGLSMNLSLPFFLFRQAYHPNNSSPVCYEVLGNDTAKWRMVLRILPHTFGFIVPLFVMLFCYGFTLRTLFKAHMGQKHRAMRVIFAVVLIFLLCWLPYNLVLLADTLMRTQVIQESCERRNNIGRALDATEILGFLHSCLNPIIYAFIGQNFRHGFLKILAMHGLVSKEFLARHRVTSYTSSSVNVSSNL

A further assay deals with Estrogen receptor beta (Homo sapiens, UniProt Q92731). The conditions noted are these: sf9.

For eleven compounds, IC50 and Ki results are on record in ChEMBL document CHEMBL1909046, “DrugMatrix in vitro pharmacology data”.

Sequence of Estrogen receptor beta (Q92731 whole entry): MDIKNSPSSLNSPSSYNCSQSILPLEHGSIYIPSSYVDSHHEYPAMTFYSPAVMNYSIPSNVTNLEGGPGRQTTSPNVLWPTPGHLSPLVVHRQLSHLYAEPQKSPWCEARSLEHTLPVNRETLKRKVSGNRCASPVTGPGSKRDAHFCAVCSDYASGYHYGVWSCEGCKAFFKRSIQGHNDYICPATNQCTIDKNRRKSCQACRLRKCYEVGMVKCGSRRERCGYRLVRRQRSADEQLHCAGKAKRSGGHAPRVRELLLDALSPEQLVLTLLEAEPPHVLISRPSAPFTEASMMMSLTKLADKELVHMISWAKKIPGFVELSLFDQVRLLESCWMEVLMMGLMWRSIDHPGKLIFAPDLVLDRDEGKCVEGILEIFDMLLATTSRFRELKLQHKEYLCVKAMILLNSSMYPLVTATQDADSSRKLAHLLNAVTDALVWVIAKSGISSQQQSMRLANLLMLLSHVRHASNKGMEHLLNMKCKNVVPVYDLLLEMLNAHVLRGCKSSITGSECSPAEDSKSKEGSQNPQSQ
Sequence of Vasopressin V1a receptor (P37288 whole entry): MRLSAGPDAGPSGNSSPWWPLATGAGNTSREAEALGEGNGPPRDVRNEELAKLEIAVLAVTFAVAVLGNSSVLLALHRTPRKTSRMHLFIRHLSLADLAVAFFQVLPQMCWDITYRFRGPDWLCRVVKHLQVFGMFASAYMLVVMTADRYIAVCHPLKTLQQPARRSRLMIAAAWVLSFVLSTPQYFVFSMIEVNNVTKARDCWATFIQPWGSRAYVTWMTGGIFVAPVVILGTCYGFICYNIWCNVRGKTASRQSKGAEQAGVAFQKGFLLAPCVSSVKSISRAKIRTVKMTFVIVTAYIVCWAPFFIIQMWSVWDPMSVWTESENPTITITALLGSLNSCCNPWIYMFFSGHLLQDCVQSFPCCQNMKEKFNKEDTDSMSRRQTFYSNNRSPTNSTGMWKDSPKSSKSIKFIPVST
Sequence of 5-hydroxytryptamine receptor 4 (O70528 whole entry): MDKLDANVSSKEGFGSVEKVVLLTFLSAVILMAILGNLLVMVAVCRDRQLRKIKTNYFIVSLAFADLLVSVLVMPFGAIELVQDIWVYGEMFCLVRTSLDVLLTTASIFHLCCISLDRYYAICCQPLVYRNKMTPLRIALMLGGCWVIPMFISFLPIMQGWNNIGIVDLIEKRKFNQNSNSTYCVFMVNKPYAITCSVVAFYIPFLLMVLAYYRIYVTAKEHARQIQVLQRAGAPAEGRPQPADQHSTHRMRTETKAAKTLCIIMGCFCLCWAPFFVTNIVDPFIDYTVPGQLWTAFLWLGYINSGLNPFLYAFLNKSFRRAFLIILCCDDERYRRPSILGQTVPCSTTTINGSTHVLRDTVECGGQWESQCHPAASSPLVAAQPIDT

Regarding `CC(N)Cc1c[nH]c2ccc(OCc3cccs3)cc12` (stereo not drawn) [BW-723C86], the IC50 result (in assay [1]; in assay [2]; at Glycine receptor; in assay [3]; at Vasopressin V1a receptor; in assay [4]) was “Not Active” in each case. The IC50 result against Estrogen receptor beta was “Not Active”.

Take `c1ccc2c(c1)Nc1ccccc1S2` [PHENOTHIAZINE]: the IC50 entry (in assay [1]; in assay [2]; against Glycine receptor; in assay [3]; at Vasopressin V1a receptor; in assay [4]) was “Not Active” each time. Also, at Estrogen receptor beta, the 50% inhibitory concentration (IC50) result is given as “Not Active”.

For `CC(C)(c1ccc(O)cc1)c1ccc(O)cc1` [BISPHENOL A], the IC50 entry (in assay [1]; in assay [2]; on Glycine receptor; in assay [3]; at Vasopressin V1a receptor; in assay [4]) was “Not Active” throughout. Also, the IC50 entry against Estrogen receptor beta is “Not Active”.

In the case of `CN(Cc1cc(Br)cc(Br)c1N)C1CCCCC1` [BROMHEXINE], the IC50 result (in assay [1]; in assay [2]; on Glycine receptor; in assay [3]; against Vasopressin V1a receptor; in assay [4]) was “Not Active” throughout. For the same compound, the 50% inhibitory concentration (IC50) entry against Estrogen receptor beta was “Not Active”.

As to `c1ccc(Cn2ccnc2)cc1`, the 50% inhibitory concentration (IC50) result (in assay [1]; in assay [2]; at Glycine receptor; in assay [3]; on Vasopressin V1a receptor; in assay [4]) was “Not Active” in each case. In addition, the IC50 result against Estrogen receptor beta was “Not Active”.

For the compound `CCO` [ALCOHOL], the IC50 result (in assay [1]; in assay [2]; on Glycine receptor; in assay [3]; against Vasopressin V1a receptor; in assay [4]) was “Not Active” throughout. Besides, the IC50 entry on Estrogen receptor beta is reported as “Not Active”.

Consider `CCN1CCN(C(=O)N[C@@H](C(=O)N[C@@H]2C(=O)N3[C@@H]2SC(C)(C)[C@@H]3C(=O)O)c2ccccc2)C(=O)C1=O` [PIPERACILLIN], for which the IC50 entry (in assay [1]; in assay [2]; against Glycine receptor; in assay [3]; on Vasopressin V1a receptor; in assay [4]) was “Not Active” in each case. In addition, the half-inhibitory concentration (IC50) entry against Estrogen receptor beta is “Not Active”.

Take `NC(=O)NC(=O)Cc1ccccc1` [PHENACEMIDE]: the IC50 result (in assay [1]; in assay [2]; against Glycine receptor; in assay [3]; against Vasopressin V1a receptor; in assay [4]) was “Not Active” throughout. In addition, the concentration for half-maximal inhibition (IC50) entry against Estrogen receptor beta is “Not Active”.

Turning to `CC(CN1c2ccccc2Sc2ccccc21)N(C)C` (stereo not drawn) [PROMETHAZINE], the IC50 entry is “Not Active” in assay [1]; “Not Active” in assay [2]; “Not Active” at Glycine receptor; 39 nM in assay [3] (read-out: IC50); “Not Active” at Vasopressin V1a receptor; “Not Active” in assay [4]. In addition, at Estrogen receptor beta, the IC50 result was “Not Active”. Also, in assay [3] (read-out: Ki), the Ki worked out at 21 nM.

With `CC[C@H]1OC(=O)[C@H](C)[C@@H](O[C@H]2C[C@@](C)(OC)[C@@H](O)[C@H](C)O2)[C@H](C)[C@@H](O[C@@H]2O[C@H](C)C[C@H](N(C)C)[C@H]2O)[C@](C)(O)C[C@@H](C)C(=O)[C@H](C)[C@@H](O)[C@]1(C)O` [ERYTHROMYCIN], the IC50 result (in assay [1]; in assay [2]; on Glycine receptor; in assay [3]; on Vasopressin V1a receptor; in assay [4]) was “Not Active” in each case. In addition, the concentration for half-maximal inhibition (IC50) entry on Estrogen receptor beta is “Not Active”.

For the compound `C[N+](C)(C)CCOP(=O)([O-])OC[C@H](O)CO`, the IC50 result (in assay [1]; in assay [2]; against Glycine receptor; in assay [3]; at Vasopressin V1a receptor; in assay [4]) was “Not Active” each time. Also, the IC50 entry on Estrogen receptor beta is on record as “Not Active”.

One may read the IC50 as the point on the concentration scale where inhibition reaches its midpoint. As a reminder, the Ki is the equilibrium dissociation constant of an inhibitor or competing ligand from its target.
